Reference: patent publication US20250163043A1 (TRANSTHERA SCIENCES (NANJING), INC., priority 2021, published 2025)

Target: CDK9/CycT1 (Homo sapiens, UniProt P50750)
Assay: Off-chip mobility shift assay (MSA) on CDK9/CycT1
Type: biochemical
Design: Full-length human CDK9 [1-372(end) amino acids of; host or cells: baculovirus expression system
Details: 4-point concentration (0.0016, 0.008, 0.04, 0.2 uM), ATP 10 μM, reaction time 5 hours, read-out: CDK9/CycT1/nM (inhibitory activity)
Protocol: Prepare 100× concentrated Test compound stock solutions with DMSO. Then, Dilute the solution 25 times with Assay Buffer (20 mM HEPES, 0.01% Triton X-100, 2 mM DTT, pH7.5) to prepare 4× test compound solutions.
Test compounds were evaluated at 4-point concentration (0.0016, 0.008, 0.04, 0.2 uM). • 1) Mix 5 μL of 4× test compound solution with 5 μL of 4× substrate/ATP/Metal solution and 10 μL of 2× kinase solution in 384-well polypropylene plate. Incubate for 5 hours at room temperature. • 2) Add 70 μL of Termination Buffer (QuickScout Screening Assist MSA; Carna Biosciences) to stop the reaction. • 3) Separate and detect unphosphorylated/phosphorylated substrate peptides in the reactant using LabChip system (Perkin Elmer). • 4) Evaluate kinase reaction from product ratio (P/(P+S)) calculated by peak height of unphosphorylated substrate(S) and peak height of phosphorylated substrate (P).

CDK9/CycT1, sequence (P50750 whole entry): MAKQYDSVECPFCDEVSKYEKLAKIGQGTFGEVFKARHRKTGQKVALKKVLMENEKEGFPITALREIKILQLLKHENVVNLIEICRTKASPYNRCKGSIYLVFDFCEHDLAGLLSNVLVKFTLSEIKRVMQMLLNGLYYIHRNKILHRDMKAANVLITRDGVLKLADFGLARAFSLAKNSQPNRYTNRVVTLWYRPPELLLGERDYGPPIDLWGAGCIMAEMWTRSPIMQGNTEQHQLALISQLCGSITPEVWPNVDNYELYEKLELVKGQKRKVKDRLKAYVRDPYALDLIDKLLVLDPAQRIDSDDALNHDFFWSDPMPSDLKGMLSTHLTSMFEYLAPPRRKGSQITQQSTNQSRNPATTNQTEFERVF
CDK9/CycT1, sequence (O60563 whole entry partner): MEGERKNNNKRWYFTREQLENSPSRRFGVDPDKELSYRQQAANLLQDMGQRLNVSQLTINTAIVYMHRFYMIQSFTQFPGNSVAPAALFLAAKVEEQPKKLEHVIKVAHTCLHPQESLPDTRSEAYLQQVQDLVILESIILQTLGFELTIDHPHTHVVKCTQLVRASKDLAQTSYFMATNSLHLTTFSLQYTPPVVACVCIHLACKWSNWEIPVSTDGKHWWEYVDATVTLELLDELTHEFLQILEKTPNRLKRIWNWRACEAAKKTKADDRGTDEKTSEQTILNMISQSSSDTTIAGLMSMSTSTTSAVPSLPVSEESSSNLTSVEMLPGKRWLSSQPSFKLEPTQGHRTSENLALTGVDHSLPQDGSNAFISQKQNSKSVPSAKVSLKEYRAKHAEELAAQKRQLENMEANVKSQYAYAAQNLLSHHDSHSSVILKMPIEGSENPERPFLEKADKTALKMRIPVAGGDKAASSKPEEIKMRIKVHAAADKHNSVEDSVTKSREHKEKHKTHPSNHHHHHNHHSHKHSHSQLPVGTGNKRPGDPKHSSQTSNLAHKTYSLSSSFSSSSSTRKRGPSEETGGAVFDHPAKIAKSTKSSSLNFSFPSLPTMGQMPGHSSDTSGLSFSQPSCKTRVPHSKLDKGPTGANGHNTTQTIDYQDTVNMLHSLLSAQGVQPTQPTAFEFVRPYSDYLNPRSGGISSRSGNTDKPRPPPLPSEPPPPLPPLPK

Row | IC50 [nM] | SMILES
1 | 10 | CC(C)Nc1nc([C@@H](C)O)cc2cnc(N[C@H]3CC[C@H](N)CC3)nc12 [Compound 76, (R)-1-(2-(((1r,4R)-4-aminocyclohexyl)amino)-8-(isopropylamino)pyrido[3,4-d]pyrimidin-6-yl)ethan-1-ol]
2 | 85 | CC(C)Nc1nc([C@@H](C)O)cc2cnc(NC3CC[C@H](C(=O)O)C3)nc12 (stereo in doubt) [Compound 77, (1S,3R)-3-((6-((R)-1-hydroxyethyl)-8-(isopropylamino)pyrido[3,4-d]pyrimidin-2-yl)amino)cyclopentane-1-carboxylic acid]
3 | 21 | CC(=O)N[C@H]1CC[C@H](Nc2ncc3cc([C@@H](C)O)nc(NC(C)C)c3n2)CC1 [Compound 65, N-((1R,4r)-4-((6-((R)-1-hydroxyethyl)-8-(isopropylamino)pyrido[3,4-d]pyrimidin-2-yl)amino)cyclohexyl)acetamide]
4 | 4 | CC(C)Nc1nc(C#N)cc2cnc(N[C@H]3CC[C@H](O)CC3)nc12 [Compound 94, 2-(((1r,4r)-4-hydroxycyclohexyl)amino)-8-(isopropylamino)pyrido[3,4-d]pyrimidine-6-carbonitrile]
5 | 17 | CC(C)Nc1nc(CO)cc2cnc(N[C@H]3CC[C@H](O)CC3)nc12 [Compound 97, (1r,4r)-4-((6-(hydroxymethyl)-8-(isopropylamino)pyrido[3,4-d]pyrimidin-2-yl)amino)cyclohexan-1-ol]
6 | 44 | CC(=O)c1cc2cnc(N[C@H]3CC[C@H](O)CC3)nc2c(NC(C)C)n1 [Compound 88, 1-(2-(((1r,4r)-4-hydroxycyclohexyl)amino)-8-(isopropylamino)pyrido[3,4-d]pyrimidin-6-yl)ethan-1-one]
7 | 36 | CC(C)Nc1nc([C@@H](C)O)cc2cnc(N[C@H]3CC[C@H](O)CC3)nc12 [Compound 75, (1R,4r)-4-((6-((R)-1-hydroxyethyl)-8-(isopropylamino)pyrido[3,4-d]pyrimidin-2-yl)amino)cyclohexan-1-ol]
8 | 64 | Cc1cc2cnc(N[C@H]3CC[C@H](O)CC3)nc2c(NC(C)C)n1 [Compound 92, (1r,4r)-4-((8-(isopropylamino)-6-methylpyrido[3,4-d]pyrimidin-2-yl)amino)cyclohexan-1-ol]
9 | 6 | CC(C)Nc1nc(C(F)F)cc2cnc(N[C@H]3CC[C@H](O)CC3)nc12 [Compound 91, (1r,4r)-4-((6-(difluoromethyl)-8-(isopropylamino)pyrido[3,4-d]pyrimidin-2-yl)amino)cyclohexan-1-ol]

Further lines, the molecule ahead of its results:

Row | SMILES | IC50 [nM]
10 | CC(=O)N[C@@H]1CCC[C@H](C(=O)Nc2cc3c(NC(C)C)nc([C@@H](C)O)cc3cn2)C1 [Compound 98, (1S,3R)-3-acetamido-N-(7-((R)-1-hydroxyethyl)-5-(isopropylamino)-2,6-naphthyridin-3-yl)cyclohexane-1-carboxamide] | 28
11 | C=Cc1cc2cnc(NC(=O)[C@H]3CCC[C@@H](NC(C)=O)C3)cc2c(NC(C)C)n1 [Compound 99, (1S,3R)-3-acetamido-N-(5-(isopropylamino)-7-vinyl-2,6-naphthyridin-3-yl)cyclohexane-1-carboxamide] | 29
12 | C[C@@H](O)c1cc2cnc(N[C@H]3CC[C@H](NC(=O)CN(C)C)CC3)nc2c(NCC(C)(C)C)n1 [Compound 64, 2-(dimethylamino)-N-((1R,4r)-4-((6-((R)-1-hydroxyethyl)-8-(neopentylamino)pyrido[3,4-d]pyrimidin-2-yl)amino)cyclohexyl)acetamide] | 26
13 | CC(C)Nc1nc([C@@H](C)O)cc2cnc(NC[C@H]3CC[C@H](NS(C)(=O)=O)CC3)nc12 [Compound 73, N-((1R,4r)-4-(((6-((R)-1-hydroxyethyl)-8-(isopropylamino)pyrido[3,4-d]pyrimidin-2-yl)amino)methyl)cyclohexyl)methanesulfonamide] | 61
14 | CC(C)Nc1nc([C@@H](C)O)cc2cnc(NCCCO)nc12 [Compound 85, (R)-3-((6-(1-hydroxyethyl)-8-(isopropylamino)pyrido[3,4-d]pyrimidin-2-yl)amino)propan-1-ol] | 64
15 | CC(C)Nc1nc([C@@H](C)O)cc2cnc(N[C@H]3CC[C@H](N4CCN(C)CC4)CC3)nc12 [Compound 67, (R)-1-(8-(isopropylamino)-2-(((1r,4R)-4-(4-methylpiperazin-1-yl)cyclohexyl)amino)pyrido[3,4-d]pyrimidin-6-yl)ethan-1-ol] | 10
16 | CC(C)Nc1nc([C@@H](C)O)cc2cnc(NCC3CCNCC3)nc12 [Compound 84, (R)-1-(8-(isopropylamino)-2-((piperidin-4-ylmethyl)amino)pyrido[3,4-d]pyrimidin-6-yl)ethan-1-ol] | 47
17 | CNC(=O)[C@H]1CC[C@@H](Nc2ncc3cc([C@@H](C)O)nc(NC(C)C)c3n2)C1 [Compound 79, (1S,3R)-3-((6-((R)-1-hydroxyethyl)-8-(isopropylamino)pyrido[3,4-d]pyrimidin-2-yl)amino)-N-methylcyclopentane-1-carboxamide] | 23
18 | CC(=O)N[C@H]1CC[C@H](CNc2ncc3cc([C@@H](C)O)nc(NC(C)C)c3n2)CC1 [Compound 72, N-((1R,4r)-4-(((6-((R)-1-hydroxyethyl)-8-(isopropylamino)pyrido[3,4-d]pyrimidin-2-yl)amino)methyl)cyclohexyl)acetamide] | 97
19 | CC(C)Nc1nc([C@@H](C)O)cc2cnc(NCC3CCCN(S(C)(=O)=O)C3)nc12 (stereo partly drawn) [Compound 70, (1R)-1-(8-(isopropylamino)-2-(((1-(methylsulfonyl)piperidin-3-yl)methyl)amino)pyrido[3,4-d]pyrimidin-6-yl)ethan-1-ol] | 61
20 | CC(=O)N1CCC(CNc2ncc3cc([C@@H](C)O)nc(NC(C)C)c3n2)CC1 [Compound 69, (R)-1-(4-(((6-(1-hydroxyethyl)-8-(isopropylamino)pyrido[3,4-d]pyrimidin-2-yl)amino)methyl)piperidin-1-yl)ethan-1-one] | 81
21 | CC(C)Nc1nc([C@@H](C)O)cc2cnc(N[C@H]3CC[C@H](NC(=O)CN(C)C)CC3)nc12 [Compound 63, 2-(dimethylamino)-N-((1R,4r)-4-((6-((R)-1-hydroxyethyl)-8-(isopropylamino)pyrido[3,4-d]pyrimidin-2-yl)amino)cyclohexyl)acetamide] | 14
22 | C[C@@H](O)c1nc(NC(C)(C)C)c2nc(N[C@H]3CC[C@H](O)CC3)ncc2c1Cl [Compound 102, (1R,4r)-4-((8-(tert-butylamino)-5-chloro-6-((R)-1-hydroxyethyl)pyrido[3,4-d]pyrimidin-2-yl)amino)cyclohexan-1-ol] | 10
23 | CC(=O)N[C@@H]1CCC[C@H](C(=O)Nc2cc3c(NC(C)C)nc(C(F)F)cc3cn2)C1 [Compound 1, (1S,3R)-3-acetamido-N-(7-(difluoromethyl)-5-(isopropylamino)-2,6-naphthyridin-3-yl)cyclohexane-1-carboxamide] | 7
24 | CC(C)Nc1nc([C@@H](C)O)cc2cnc(NC(=O)[C@@H]3CCCNC3)cc12 [Compound 86, (R)—N-(7-((R)-1-hydroxyethyl)-5-(isopropylamino)-2,6-naphthyridin-3-yl)piperidine-3-carboxamide] | 50
25 | CC(C)Nc1nc([C@@H](C)O)cc2cnc(NCC3CCN(S(C)(=O)=O)CC3)nc12 [Compound 68, (R)-1-(8-(isopropylamino)-2-(((1-(methylsulfonyl)piperidin-4-yl)methyl)amino)pyrido[3,4-d]pyrimidin-6-yl)ethan-1-ol] | 82
26 | CC(C)Nc1nc([C@@H](C)O)cc2cnc(NC[C@H]3CC[C@H](N)CC3)nc12 [Compound 82, (R)-1-(2-((((1r,4R)-4-aminocyclohexyl)methyl)amino)-8-(isopropylamino)pyrido[3,4-d]pyrimidin-6-yl)ethan-1-ol] | 63
